Patent US4150970A, “Growth regulator for plants” (Board of Trustees of Michigan State University, priority 1977, dated 1979)

How the values were obtained:
[1] = system: oat first-internode; details: published reports; cited from earlier work
[2] = system: plants; assay: Plant growth regulation (general statement); assay type: in vivo; details: analogous compounds
[3] = system: tobacco callus; assay: Growth of tobacco callus, triacontanol and octocosanol (Example XIX, FIG. 6); assay type: cell-based, Nicotiana tabacum, var. Wisconsin 38; details: four concentrations, 10 days
Method: Cell cultures were separately grown in disposable petri dishes.
1. Haploid tobacco (Nicotiana tabacum, var. Wisconsin 38)
The cultures were grown on the basic medium of mineral salts described by Linsmaier and Skoog (Physiol. Plant, […] (1965)). Vitamins and hormones varied for each tissue (Table X-1) to maintain the tissues in an undifferentiated state. For all of the tissues inositol was 100 mg/liter and agar 1%. Sucrose was 3% for all but the bean which was 2%.
Callus was produced from pith for tobacco, potato and tomato. Bean callus was produced from hypocotyl sections and barley callus from immature ovarian tissue. Subcultures were maintained on the appropriate media.
Stock solutions of triacontanol were prepared at a concentration of 100 μg/ml. The solvent used was glass distilled benzene. The lower concentrations were obtained by serial dilutions. Treatments were applied to 4.5 cm Whatman #1 filter paper disks in 100 μl aliquots. Controls received 100 μl of glass distilled benzene. The solvent was evaporated for approximately 15 minutes and the filter papers were then placed on the agar medium.
Callus tissue was then broken into pieces of approximately the same size (10 mg) and placed in the petri dishes on the treated filter paper (one piece per dish). For experiments conducted in the light the intensity was approximately 2.0 microwatts/cm^2 -namometer. Fresh weight measurements were made after 12 days of growth.
A stock solution of octocosanol (CH3 (CH2)26 CH2 OH was prepared in the same manner as the triacontanol solutions above described.
The effect of four concentrations of triacontanol and octocosanol on tobacco callus was determined, using the materials and procedures above described in this Example. The dishes were tared and weighed at the end of 10 days. The results are illustrated in FIG. 6 of the drawings.

CCCCCCCCCCCCCCCCCCCCCCO [1-docosanol, reference compound]
growth, oat first-internode method [1]: increase growth

CCCCCCCCCCCCCCCCCCCCCCCCCCCC(=O)O [octocosanoic acid]
effect as plant growth regulator [2]: ineffective

CCCCCCCCCCCCCCCCCCCCCCCCCCCCO [octocosanol, reference compound]
effect as plant growth regulator [2]: ineffective | growth over the control [3]: no effect on growth

CCCCCCCCCCCCCCCCCCCCCCCCCCCCCC [triacontane]
effect as plant growth regulator [2]: ineffective
